Experiments:
Assay in all cases: relative viability (nuclei count vs DMSO), 5 days (fraction); higher = more cells survive
Sulindac + Linsitinib = compound: CC1=C(CC(=O)O)c2cc(F)ccc2/C1=C\c1ccc([S+](C)[O-])cc1 [Sulindac] + C[C@]1(O)C[C@@H](c2nc(-c3ccc4ccc(-c5ccccc5)nc4c3)c3c(N)nccn32)C1 [Linsitinib] (partner 1 µM)
In short: (§1)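 Lung cancer cell lines in 1536-well plates were dosed by pin tool the day after seeding, either with one drug alone or with a fixed anchor-drug dose plus five library-drug doses (not always all listed) in √10 steps. After 5 days, cells were fixed and their nuclei stained in one step (final 0.05% Triton X-100, 1% formaldehyde, 1 ug/ml Hoechst), then counted on 4× images. Relative viability is the nuclei count in treated wells divided by that in vehicle wells. Values are medians of duplicate plates.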

[1] = compound: CN[C@@H]1C[C@H]2O[C@@](C)([C@@H]1OC)n1c3ccccc3c3c4c(c5c6ccccc6n2c5c31)C(=O)NC4 [Staurosporine] + CC1(C)CCC(c2ccc(Cl)cc2)=C(CN2CCN(c3ccc(C(=O)NS(=O)(=O)c4ccc(N[C@H](CCN5CCOCC5)CSc5ccccc5)c(S(=O)(=O)C(F)(F)F)c4)cc3)CC2)C1 [Navitoclax] (partner 0.5 µM)
In short: as §1

[2] = compound: O=c1[nH]cc(F)c(=O)[nH]1 [5-Fluorouracil] + COc1cc2c(Oc3ccc(NC(=O)C4(C(=O)Nc5ccc(F)cc5)CC4)cc3F)ccnc2cc1OCCCN1CCOCC1 [Foretinib] (partner 0.25 µM)
In short: as §1

[3] = compound: O=c1[nH]cc(F)c(=O)[nH]1 [5-Fluorouracil] + Cc1nc(NC(=O)N2CCC[C@H]2C(N)=O)sc1-c1ccnc(C(C)(C)C(F)(F)F)c1 [Alpelisib] (partner 2 µM)
In short: as §1

Row | Cell Line | relative viability (Sulindac + Linsitinib; first compound 0.08 µM) | relative viability (Sulindac + Linsitinib; first compound 0.253 µM) | relative viability (Sulindac + Linsitinib; first compound 0.8 µM) | relative viability (Sulindac + Linsitinib; first compound 2.53 µM) | relative viability (Sulindac + Linsitinib; first compound 8 µM) | relative viability ([1]; first compound 0.005 µM) | relative viability ([1]; first compound 0.01581 µM) | relative viability ([1]; first compound 0.05 µM) | relative viability ([1]; first compound 0.1581 µM) | relative viability ([1]; first compound 0.5 µM) | relative viability ([2]; first compound 0.02 µM) | relative viability ([2]; first compound 0.2 µM) | relative viability ([2]; first compound 0.6325 µM) | relative viability ([2]; first compound 2 µM) | relative viability ([3]; first compound 0.2 µM) | relative viability ([3]; first compound 0.6325 µM) | relative viability ([3]; first compound 2 µM) | relative viability ([3]; first compound 0.02 µM)
1 | NCI-H1437 | 1.33 | 1.14 | 0.628 | 1.09 | 1.26 | 0.982 | 0.865 | 0.695 | 0.189 | 0.101 | 0.687 | 0.359 | 0.273 | 0.225 | 0.226 | 0.171 | 0.111 | –
2 | EKVX | 0.872 | 1 | 0.721 | 0.92 | 1.04 | 0.306 | 0.222 | 0.254 | 0.168 | 0.112 | 0.707 | 0.321 | 0.177 | 0.149 | – | 0.153 | 0.147 | 0.7
3 | IA-LM | 0.527 | 0.681 | – | 0.826 | 0.423 | 0.242 | – | 0.257 | 0.0433 | 0.0163 | 1.33 | 0.618 | 0.496 | 0.236 | 0.37 | 0.175 | 0.182 | 0.682
4 | NCI-H647 | 1.14 | 1.3 | 1.4 | 1.25 | 1.21 | 0.728 | 0.142 | 0.291 | 0.0554 | 0.0386 | 1.25 | 1.32 | 0.997 | 0.796 | 0.915 | 1.06 | 0.767 | 0.897
5 | NCI-H1734 | 0.987 | 0.932 | 0.575 | 0.903 | 1.13 | 0.921 | 0.363 | 0.195 | 0.105 | 0.0733 | 0.859 | 0.881 | 0.756 | 0.46 | 0.756 | 0.582 | 0.529 | 0.559

From the supplement of paper PMC10307832
